A short description of data set [1]: Serum pharmacokinetics of bumetanide after single intranasal, sublingual or intravenous dose in dogs. As to conditions: both sexes, beagle, dog, in vivo, 0.5-mg IV dose (Second Replicate), individual animals. As to the method:
The purpose of this study was to assess the pharmacokinetic profiles of various formulations of bumetanide, including arginine bumetanide salts (F69), potassium bumetanide salts (F10), an bumetanide emulsion (FE-9), and a nano-emulsion of bumetanide (FNE-1), which are described in Table 42, when each formulation is administered as a single intranasal dose or as a single sublingual dose in different vehicles when compared to single IV administration dose in male and female beagle dogs.
A total of four dogs were assigned to the study (3 males, 8-12 kg and 1 female, 7-11 kg). Because bumetanide is a diuretic, 30 minutes prior to dosing, the dogs received a 100 mL injection of Lactated Ringer's solution subcutaneously (SQ) for all events. The 100 mL injection was repeated ˜2 hours post-dose.
This study was conducted in 9 Events in two phases (A and B) in the same animals, separated by approximately a 48 hour or more washout period between events in each phase and ˜2 weeks rest period between phases, meaning Phase B events were initiated after ˜2 weeks rest period from completion of Event 5. The dosing regimen for Phase A and Phase B events are described in Table 43 and 44 respectively.
For intranasal administration, each dog was held in an upright position with the nose pointing up. […]

A short description of data set [2]: Solubility of bumetanide (free acid) in water in the presence and absence of surfactant, HPLC. It is filed as physicochemical. As to conditions: 10 mg in 1 mL deionized water, no surfactant. As to the method: Bumetanide, 10 mg, in its free acid form was added to 1 mL of deionized water and mixed using a vortex and sonicator. The solution was filtered using a 0.22 μm nylon syringe filter. To 900 μL deionized water, 100 μL of the filtered bumetanide solution was added before being characterized for the concentration of the bumetanide in solution using HPLC. The concentration of bumetanide was determined using a standard curve generated by bumetanide solutions of known concentrations. […] Therefore, to the 10 mg of bumetanide, 1 mL of deionized water containing 1.0%, 0.5% or 0.1% of the surfactant tetradecyl-β-D-maltoside. The bumetanide was then solubilized using a vortex and sonicator, after which it was filtered using a 0.22 μm nylon syringe filter. To 900 μL deionized water, 100 μL of the filtered bumetanide solution was added before being characterized for the concentration of the bumetanide in solution using HPLC. The resulting bumetanide concentrations are recorded in Table 1.

A short description of data set [3]: Stability of arginine and potassium bumetanide salt solutions over four weeks at 5 °C or 25 °C. As to conditions: for stability in solution (conclusion): at either 5° C. or 25° C. It is filed as physicochemical. As to the method: The stability of the arginine and potassium bumetanide salts was monitored over a four week period with storage at either 2-8° C. or 25° C. for that time period. The bumetanide salt solutions were evaluated on the basis of pH, concentration of bumetanide in solution, the percent assay recovery and the presence of an impurity (see Tables 18 and 19).

Data set [4] in a line: Solubility of bumetanide salts formed in situ with various bases (saturated solution, HPLC). As to conditions: deionized water with base added (salt formed in situ), thermodynamic from solid, 20 mg bumetanide in 1 mL deionized water + base, 0.22 μm filtrate, read-out: Calculated conc. (measured solubility of bumetanide salt). The format is physicochemical.
Protocol: The acid form of bumetanide was weighed out to 20 mg and dissolved in 1 mL of deionized water by mixing with a vortex to form a low-pH solution of bumetanide. To this low pH bumetanide solution, a determined amount of base was added and mixed using a vortex for 2 minutes, to form a solution having a pH suitable for nasal administration. With the increasing pH the bumetanide salt formed in situ precipitated, in part, to form a saturated solution of the resulting salt form. The saturated solution was then filtered through a 0.22 μm filter to remove all precipitated bumetanide salt. The filtrate was collected, and its pH was measured. An aliquot of the saturated solution was assayed for bumetanide by HPLC to determine the maximum concentration achievable for the salt form in water at about neutral pH.
This procedure was repeated for various bases, including arginine, lysine, potassium, sodium, glycine, histidine, and the cationic lipophilic surfactants soy lecithin, distearoyl glycerol-3-phosphatidylamine, L-α-phosphatidylethanolamine and bis(2-ethylhexyl)amine, in order to determine the maximum solubility of each bumetanide salt solution.

Structures are written as SMILES. Counter-ions that a name gives are not always drawn.

For orientation: solubility means how much of the substance goes into solution per volume.

For `CCCCNc1cc(C(=O)O)cc(S(N)(=O)=O)c1Oc1ccccc1` [Bumetanide, bumetanide], the concentration at 45 min in data set [1] came out at 13.9 ng/mL. Further, the “solubility of free acid form in water” value in data set [2] is given as “Nearly no bumetanide in the free acid form was soluble water”.
Take `CCCCNc1cc(C(=O)O)cc(S(N)(=O)=O)c1Oc1ccccc1.N=C(N)NCCCC(N)C(=O)O` [arginine bumetanide salt]: the Assay came to 5.08 mg/mL in data set [3] (1 week, 5° C.); 5.06 mg/mL in data set [3] (1 week, 25° C.); 4.99 mg/mL in data set [3] (2 weeks, 5° C.); 4.97 mg/mL in data set [3] (2 weeks, 25° C.); 4.89 mg/mL in data set [3] (4 weeks, 5° C.); 4.97 mg/mL in data set [3] (4 weeks, 25° C.). Further, the Assay in data set [3] (T0) is 5.07 mg/mL. Also, the pH in data set [3] (1 week, 5° C.) worked out at 7.0; in data set [3] (1 week, 25° C.), 7.1; in data set [3] (2 weeks, 5° C.), 7.0; in data set [3] (2 weeks, 25° C.), 7.0; in data set [3] (4 weeks, 5° C.) it was 7.0; in data set [3] (4 weeks, 25° C.) it was 7.1. Moreover, in data set [3] (T0), the pH turned out to be 7.0. In data set [3] (T0), the Osmolality was determined as 335 mOsm/kg. In data set [3] (T0), the Viscosity stood at 1.3 cP. For the same compound, the “stability in solution (conclusion)” value in data set [3] is “stable for up to four weeks”. Also, in data set [3] (initially or after four weeks, 5° C. and 25° C.), the “impurity by HPLC” value is on record as “no impurity was detected”.
For the compound `CCCCNc1cc(C(=O)O)cc(S(N)(=O)=O)c1Oc1ccccc1` [potassium bumetanide salt], the Assay in data set [3] (1 week, 5° C.) was 5.18 mg/mL; in data set [3] (1 week, 25° C.), 5.10 mg/mL; in data set [3] (2 weeks, 5° C.), 4.97 mg/mL; in data set [3] (2 weeks, 25° C.) it was 4.96 mg/mL; in data set [3] (4 weeks, 5° C.) it was 5.00 mg/mL; in data set [3] (4 weeks, 25° C.), 5.03 mg/mL. Further, the Assay in data set [3] (T0) is 5.10 mg/mL. The pH in data set [3] (1 week, 5° C.) is 7.0; in data set [3] (1 week, 25° C.), 7.0; in data set [3] (2 weeks, 5° C.) it was 7.0; in data set [3] (2 weeks, 25° C.), 7.1; in data set [3] (4 weeks, 5° C.) it was 7.0; in data set [3] (4 weeks, 25° C.), 7.1. Besides, the pH in data set [3] (T0) was determined as 7.0. The Osmolality in data set [3] (T0) is 317 mOsm/kg. Also, in data set [3] (T0), the Viscosity is listed as 1.3 cP. Further, the “stability in solution (conclusion)” value in data set [3] is reported as “stable for up to four weeks”. Further, in data set [4], the solubility at 2 min is 20.2 mg/mL.

Source of the values: US11123319B2, “Methods and compositions for treating edema refractory to oral diuretics” (RESQ Pharmaceuticals LLC, priority 2019, dated 2021).
